Experimental data reported in ChEMBL document CHEMBL1201862, “PubChem BioAssay data set” (2004).
Calls of active or inactive are those of the source.

What was measured:
[1] = inhibitors of Vif binding to APOBEC3G peptide, primary screen, biochemical, TR-FRET, GST-Vif 1-94, biotin-A3G peptide, dose response retest (AID 1117319); assay type: functional;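 also: TR-FRET signal of purified GST-Vif binding a biotinylated A3G peptide; inhibitors lower the FRET signal by blocking Vif and A3G binding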
[2] = target: DNA dC->dU-editing enzyme APOBEC-3G (Homo sapiens, UniProt Q9HC16); assay type: functional;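 also: Dose-response counterscreen measuring inhibition of APOBEC3G DNA deaminase activity, run while confirming APOBEC3A inhibitors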
[3] = target: T1, Zinc finger protein mex-5 (Caenorhabditis elegans, UniProt Q9XUB2); test: MEX-5/TCR-2 RNA interaction inhibitors, dose response, biochemical, C. elegans, fluorescence polarization (AID 1960)
T1 sequence (Q9XUB2 whole entry): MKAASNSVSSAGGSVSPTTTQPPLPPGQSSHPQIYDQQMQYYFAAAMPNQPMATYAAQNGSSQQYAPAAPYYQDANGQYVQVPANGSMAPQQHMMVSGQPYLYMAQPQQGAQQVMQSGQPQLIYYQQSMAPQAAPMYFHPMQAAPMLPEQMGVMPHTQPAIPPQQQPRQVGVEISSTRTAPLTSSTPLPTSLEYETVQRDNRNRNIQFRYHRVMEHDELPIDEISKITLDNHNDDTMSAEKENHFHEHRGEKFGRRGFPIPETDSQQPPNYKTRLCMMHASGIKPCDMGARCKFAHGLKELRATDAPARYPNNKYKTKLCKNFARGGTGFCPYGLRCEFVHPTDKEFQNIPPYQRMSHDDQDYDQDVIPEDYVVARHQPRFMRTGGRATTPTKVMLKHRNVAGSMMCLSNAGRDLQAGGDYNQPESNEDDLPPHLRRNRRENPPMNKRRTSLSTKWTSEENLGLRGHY

[4] = target: DNA dC->dU-editing enzyme APOBEC-3A (Homo sapiens, UniProt P31941); test: Dose Response confirmation of small molecule APOBEC3A DNA Deaminase Inhibitors via a fluorescence-based single-stranded DNA deaminase assay. [Related pubchem assays (depositor defined):AID493011, AID493024]; assay type: functional
[5] = target: T2, RNA-binding protein pos-1 (Caenorhabditis elegans, UniProt G5EF15); test: inhibitors of POS-1/mex-3 RNA binding, dose response, biochemical, fluorescence polarization (AID 1964);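 also: purified POS-1 fused to maltose binding protein made in E. coli; potency of compounds blocking POS-1 binding to fluorescent RNA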
T2 sequence (G5EF15 whole entry): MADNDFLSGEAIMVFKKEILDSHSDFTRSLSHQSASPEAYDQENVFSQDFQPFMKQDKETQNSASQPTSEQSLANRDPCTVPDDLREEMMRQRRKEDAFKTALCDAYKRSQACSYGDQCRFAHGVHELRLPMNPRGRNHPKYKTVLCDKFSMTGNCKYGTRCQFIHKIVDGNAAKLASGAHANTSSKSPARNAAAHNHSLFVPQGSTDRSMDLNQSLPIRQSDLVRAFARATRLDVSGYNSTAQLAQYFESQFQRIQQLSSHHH

Bcl-2-related protein A1 = target: T3, Bcl-2-related protein A1 (Mus musculus, UniProt Q07440); assay type: functional;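 also: confirmatory dose–response counterscreen on Bfl-1, used to check hits from a UBC13 polyubiquitin inhibitor campaign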
T3 sequence (Q07440 whole entry): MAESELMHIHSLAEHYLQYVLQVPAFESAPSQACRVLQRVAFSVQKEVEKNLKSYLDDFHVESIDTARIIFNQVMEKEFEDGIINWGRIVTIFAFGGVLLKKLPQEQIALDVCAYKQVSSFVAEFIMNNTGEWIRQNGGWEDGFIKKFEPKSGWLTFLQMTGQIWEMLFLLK

[6] = target: T4, Ubiquitin-conjugating enzyme E2 N (Homo sapiens, UniProt P61088); assay type: functional
T4 sequence (P61088 whole entry): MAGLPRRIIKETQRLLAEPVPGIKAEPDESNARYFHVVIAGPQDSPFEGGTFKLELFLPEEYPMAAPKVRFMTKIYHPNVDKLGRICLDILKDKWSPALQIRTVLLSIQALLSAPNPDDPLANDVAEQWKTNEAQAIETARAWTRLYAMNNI

[7] = target: T4, Ubiquitin-conjugating enzyme E2 N; assay type: functional; remark: listed apart in the source
[8] = P. falciparum Dd2 growth inhibitors, dose response, SYBR Green, cherry-picked samples (AID 1159567); assay type: functional, cell-based
[9] = P. falciparum 3D7-ScDHODH growth inhibitors, dose response, SYBR Green, dry powder samples (AID 1159570); assay type: functional, cell-based;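 also: parasite growth measured after 72 hours of compound exposure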
[10] = P. falciparum ATP4 D1247Y mutant growth inhibitors, dose response, NITD609-resistant line, SYBR Green, dry powder (AID 1159571); assay type: functional, cell-based;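 also: parasites synchronized at ring stage by sorbitol before testing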
[11] = HepG2 cell cytotoxicity, dose response, cytotoxicity control, plate reader, dry powder samples (AID 1159569); assay type: functional, cell-based;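 also: inhibitor potency with signal falling toward the positive control level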
[12] = P. falciparum Dd2 growth inhibitors, dose response, SYBR Green, dry powder samples (AID 1159566); assay type: functional, cell-based;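 also: potency for growth inhibition with lower SYBR green DNA signal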
[13] = inhibitors of intracellular T. cruzi replication, confirmation, NIH3T3 host cells, beta-gal luminescence (AID 2044); assay type: functional, cell-based;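 also: intracellular parasites grown in NIH/3T3 mouse fibroblasts as host cells; luminescent beta-galactosidase reporter signal from transgenic T. cruzi replicating inside host cells; inhibitors lower the luminescence signal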
[14] = cytotoxicity toward NIH3T3 fibroblasts, dose response, counter-screen, cell-based, ATP luminescence, mouse fibroblasts (AID 2010); assay type: functional;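 also: cells exposed to compound for about 90 hours before reading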
[15] = target: T5, Short transient receptor potential channel 4 (Mus musculus, UniProt Q9QUQ5); test: mouse TRPC4 channel activators, dose response, cell-based, HEK293 TRPC4/mu-opioid, Fluo-4 calcium (AID 434937); assay type: functional
T5 sequence (Q9QUQ5 whole entry): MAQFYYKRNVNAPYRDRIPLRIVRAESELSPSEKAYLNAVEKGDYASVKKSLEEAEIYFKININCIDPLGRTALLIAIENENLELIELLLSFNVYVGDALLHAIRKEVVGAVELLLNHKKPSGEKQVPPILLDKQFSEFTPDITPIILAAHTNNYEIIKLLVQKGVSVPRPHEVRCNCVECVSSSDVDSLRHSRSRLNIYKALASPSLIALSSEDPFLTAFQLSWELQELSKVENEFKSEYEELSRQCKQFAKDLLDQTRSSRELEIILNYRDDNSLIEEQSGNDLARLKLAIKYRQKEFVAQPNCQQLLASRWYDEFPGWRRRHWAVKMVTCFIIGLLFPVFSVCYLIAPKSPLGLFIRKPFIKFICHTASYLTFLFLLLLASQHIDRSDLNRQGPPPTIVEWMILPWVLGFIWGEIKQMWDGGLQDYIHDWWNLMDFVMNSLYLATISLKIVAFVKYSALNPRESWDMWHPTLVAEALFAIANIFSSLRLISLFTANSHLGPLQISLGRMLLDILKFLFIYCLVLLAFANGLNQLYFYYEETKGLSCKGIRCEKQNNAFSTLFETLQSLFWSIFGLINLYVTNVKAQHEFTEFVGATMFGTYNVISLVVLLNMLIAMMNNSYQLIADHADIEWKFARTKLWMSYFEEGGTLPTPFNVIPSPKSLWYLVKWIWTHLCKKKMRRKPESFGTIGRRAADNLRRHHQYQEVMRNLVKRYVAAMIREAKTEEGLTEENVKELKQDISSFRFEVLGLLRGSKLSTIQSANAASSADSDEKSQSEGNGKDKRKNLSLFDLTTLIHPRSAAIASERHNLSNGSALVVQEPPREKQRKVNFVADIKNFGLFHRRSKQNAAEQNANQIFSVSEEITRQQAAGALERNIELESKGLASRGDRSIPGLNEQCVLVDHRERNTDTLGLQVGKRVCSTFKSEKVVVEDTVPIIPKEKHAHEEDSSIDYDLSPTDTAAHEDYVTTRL

[16] = target: T6, Histone-lysine N-methyltransferase NSD2 (Homo sapiens, UniProt O96028); assay type: biochemical
T6 sequence (O96028 whole entry): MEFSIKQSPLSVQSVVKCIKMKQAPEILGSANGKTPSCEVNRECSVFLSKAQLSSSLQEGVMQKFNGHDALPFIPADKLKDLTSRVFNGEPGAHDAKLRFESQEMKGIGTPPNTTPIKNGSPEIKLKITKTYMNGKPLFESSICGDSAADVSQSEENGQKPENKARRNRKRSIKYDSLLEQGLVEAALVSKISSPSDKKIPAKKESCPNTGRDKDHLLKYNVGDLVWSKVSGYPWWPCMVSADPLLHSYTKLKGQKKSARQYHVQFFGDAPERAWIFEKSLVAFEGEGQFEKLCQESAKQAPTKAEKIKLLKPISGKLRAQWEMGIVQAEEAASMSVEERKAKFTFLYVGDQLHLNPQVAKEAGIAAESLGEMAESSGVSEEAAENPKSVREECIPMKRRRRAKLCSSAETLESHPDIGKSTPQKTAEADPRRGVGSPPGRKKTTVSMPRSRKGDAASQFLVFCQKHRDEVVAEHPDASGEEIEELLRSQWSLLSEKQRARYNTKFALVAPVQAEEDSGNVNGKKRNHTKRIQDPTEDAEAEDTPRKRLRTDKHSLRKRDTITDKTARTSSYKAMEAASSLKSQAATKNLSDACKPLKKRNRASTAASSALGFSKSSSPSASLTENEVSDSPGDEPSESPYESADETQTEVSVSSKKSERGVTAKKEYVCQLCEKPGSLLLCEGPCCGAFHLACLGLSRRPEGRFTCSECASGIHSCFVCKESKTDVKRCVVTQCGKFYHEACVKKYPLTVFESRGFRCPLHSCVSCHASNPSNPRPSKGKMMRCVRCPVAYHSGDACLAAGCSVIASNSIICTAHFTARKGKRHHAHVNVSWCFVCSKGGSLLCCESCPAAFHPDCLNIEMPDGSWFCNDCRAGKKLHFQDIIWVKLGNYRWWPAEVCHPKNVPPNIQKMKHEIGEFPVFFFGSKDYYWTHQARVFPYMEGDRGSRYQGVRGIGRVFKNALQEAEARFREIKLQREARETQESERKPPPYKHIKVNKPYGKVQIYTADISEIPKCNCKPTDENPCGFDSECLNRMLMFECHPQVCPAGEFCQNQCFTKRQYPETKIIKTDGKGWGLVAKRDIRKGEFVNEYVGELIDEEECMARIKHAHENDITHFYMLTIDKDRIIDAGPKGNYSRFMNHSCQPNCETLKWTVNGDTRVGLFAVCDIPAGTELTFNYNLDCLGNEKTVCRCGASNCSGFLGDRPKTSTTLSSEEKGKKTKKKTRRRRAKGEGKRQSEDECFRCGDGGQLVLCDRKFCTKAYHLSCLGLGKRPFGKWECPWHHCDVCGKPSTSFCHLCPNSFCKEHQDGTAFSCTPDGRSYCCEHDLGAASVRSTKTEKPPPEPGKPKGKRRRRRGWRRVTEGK

Chain of DNA dC->dU-editing enzyme APOBEC-3A (P31941 whole entry, the tested form may be a part): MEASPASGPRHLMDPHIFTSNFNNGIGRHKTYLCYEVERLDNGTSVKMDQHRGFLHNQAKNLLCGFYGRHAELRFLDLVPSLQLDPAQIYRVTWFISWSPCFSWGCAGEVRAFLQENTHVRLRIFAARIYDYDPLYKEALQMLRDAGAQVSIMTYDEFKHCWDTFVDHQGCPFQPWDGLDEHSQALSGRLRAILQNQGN
Chain of DNA dC->dU-editing enzyme APOBEC-3G (Q9HC16 whole entry): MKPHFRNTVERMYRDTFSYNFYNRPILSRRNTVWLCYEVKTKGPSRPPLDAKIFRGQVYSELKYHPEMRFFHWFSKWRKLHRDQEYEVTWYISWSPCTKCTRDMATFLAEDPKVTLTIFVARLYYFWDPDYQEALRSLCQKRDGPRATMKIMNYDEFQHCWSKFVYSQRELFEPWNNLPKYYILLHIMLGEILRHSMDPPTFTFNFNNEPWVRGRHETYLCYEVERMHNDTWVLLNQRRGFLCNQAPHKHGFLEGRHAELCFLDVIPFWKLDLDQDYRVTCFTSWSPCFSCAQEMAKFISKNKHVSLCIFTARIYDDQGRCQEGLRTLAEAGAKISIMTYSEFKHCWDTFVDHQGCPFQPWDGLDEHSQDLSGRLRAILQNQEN

O=C(NCc1ccco1)C1CCCN(S(=O)(=O)c2cccc3nsnc23)C1 (centres undefined)
IC50 [1]: > 100 µM (active)

O=C(O)c1cccc(-n2cccc2/C=C2\NC(=O)N(Cc3ccc(F)cc3)C2=O)c1
IC50 [2]: 29.7 µM (active)
EC50 [3]: > 150 µM (not active)
IC50 [4]: 11.4 µM (active)
EC50 [5]: > 300 µM (not active)

Cc1ccc2cc3c(nc2c1)N(c1ccccc1)CC3
IC50 (Bcl-2-related protein A1): > 20 µM (inactive)
IC50 [6]: 18.4 µM (active)
IC50 [7]: > 20 µM (inactive)

CN1c2ccsc2/C(=N/NC(=O)c2c(F)cccc2F)CS1(=O)=O
IC50 [1]: > 100 µM (active)

COc1ccc2c3c([nH]c2c1)[C@H](CO)N(C(=O)Nc1ccc(F)cc1)CC31CCN(Cc2cc(-c3ccccc3)on2)CC1
AC50 [8]: 1.43 µM (active)
AC50 [9]: 1.47 µM (active)
AC50 [10]: 876 nM (active)
AC50 [11]: 30.3 µM (active)
AC50 [12]: 452 nM (active)

O=C(O)c1cc2nc(-c3cccs3)cc(C(F)(F)F)n2n1
IC50 [2]: > 100 µM (inactive)
IC50 [4]: 12.1 µM (active)

Cc1ccc(N(C(=O)c2snc(C(N)=O)c2N)C(C(=O)NCCC(C)C)c2ccco2)cc1 (centres undefined)
IC50 (Bcl-2-related protein A1): > 20 µM (inactive)
EC50 [13]: 1.1 µM (active)
EC50 [14]: > 60 µM (not active)
IC50 [6]: 17 µM (active)
IC50 [7]: 10.9 µM (active)

O=C1c2cccc3cccc(c23)C(=O)N1Cc1cccnc1
IC50 (Bcl-2-related protein A1): > 20 µM (inactive)
IC50 [6]: 19.1 µM (active)
IC50 [7]: 18.1 µM (active)

O=c1cc(O)nc(SCc2ccccc2Cl)[nH]1
IC50 [1]: > 100 µM (active)

CN1CCN(C(=O)c2ccc(N(C)S(=O)(=O)c3cccs3)cc2)CC1
IC50 [1]: > 100 µM (active)

C=CC[n+]1c2n(c3ccccc3c1=O)CCCCC2
IC50 [2]: 6.84 µM (active)
IC50 [4]: 3.57 µM (active)

N#Cc1ccc(-c2ccc([C@@H]3[C@@H]4CN(C(=O)C5CCCC5)C[C@H]3N4)cc2)cc1
AC50 [8]: 2.72 µM (active)
AC50 [9]: 3.48 µM (active)
AC50 [10]: 3530 nM (active)
AC50 [11]: 51 µM (active)
AC50 [12]: 2250 nM (active)

Nc1ccc2[nH]c(-c3cccc(-c4nc5cc(N)ccc5[nH]4)n3)nc2c1
IC50 (Bcl-2-related protein A1): 5.82 µM (active)
EC50 [3]: > 300 µM (not active)
EC50 [5]: > 300 µM (not active)
IC50 [6]: 9 µM (active)
IC50 [7]: 8.28 µM (active)

CNCCCOc1ccc2c(c1)CCC2
EC50 [15]: 4.73 µM (active)
AC50 [16]: > 20 µM (inactive)

Cc1ccc(C(=O)NNC(=O)c2nn(-c3ccc(F)cc3)ccc2=O)cc1
IC50 (Bcl-2-related protein A1): > 20 µM (inactive)
IC50 [6]: 7.29 µM (active)
IC50 [7]: 8.19 µM (active)

Nc1nc(SCc2nc(-c3ccccc3)no2)nc(O)c1-c1ccccc1
IC50 [1]: > 100 µM (active)

C[C@@H]1CN([C@H](C)CO)C(=O)c2cccc(NC(=O)c3nc4ccccc4s3)c2O[C@H]1CN(C)C(=O)NC1CCCCC1
AC50 [8]: 2.73 µM (active)
AC50 [9]: 0.114 µM (active)
AC50 [10]: 152 nM (active)
AC50 [11]: > 100 µM (inactive)
AC50 [12]: 196 nM (active)
